# Source: patent US9499553B2 (CHUGAI SEIYAKU KABUSHIKI KAISHA, priority 2013, dated 2016)
# Target: T1, human NaPi-IIb (Homo sapiens, UniProt O95436)
# T1 construct: expressed in transfected cells
# T1 sequence (O95436 1-690): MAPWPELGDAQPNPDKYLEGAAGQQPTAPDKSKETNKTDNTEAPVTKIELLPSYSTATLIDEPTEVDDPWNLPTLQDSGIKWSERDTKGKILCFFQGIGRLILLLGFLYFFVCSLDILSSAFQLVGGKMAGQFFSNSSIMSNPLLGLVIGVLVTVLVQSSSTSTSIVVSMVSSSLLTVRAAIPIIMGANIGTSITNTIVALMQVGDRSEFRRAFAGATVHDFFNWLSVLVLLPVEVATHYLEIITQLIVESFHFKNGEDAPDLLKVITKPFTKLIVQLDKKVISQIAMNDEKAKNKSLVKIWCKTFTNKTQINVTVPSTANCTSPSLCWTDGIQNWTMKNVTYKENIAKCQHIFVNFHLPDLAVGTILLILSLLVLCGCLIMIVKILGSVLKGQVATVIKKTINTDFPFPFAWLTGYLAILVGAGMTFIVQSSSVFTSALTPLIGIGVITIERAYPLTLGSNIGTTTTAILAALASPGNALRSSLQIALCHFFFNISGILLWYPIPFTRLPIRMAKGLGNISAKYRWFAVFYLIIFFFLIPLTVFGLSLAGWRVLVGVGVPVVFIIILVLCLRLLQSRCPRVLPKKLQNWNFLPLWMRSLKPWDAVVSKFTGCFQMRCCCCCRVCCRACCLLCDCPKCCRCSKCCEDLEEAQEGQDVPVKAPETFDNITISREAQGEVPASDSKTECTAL
# Experiment: Inhibitory effect on 33PO4 uptake into human NaPi-IIb-expressing CHO cells
# Format: cell-based
# Conditions: read-out: IC50 against 33PO4 uptake into human NaPi-IIb-expressing cells
# Method in brief: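 Uptake of ³³PO4 was measured by scintillation counting after ice-cold buffer A washes. Cells were CHO stably expressing human NaPi-IIb, seeded overnight, and exposed to ³³PO4 in buffer A at room temperature.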
row,IC50 [µM],Structure (SMILES)
1,23.5,CN(CCO)CCOc1ccc(CN2C(=O)C(C(=O)Nc3ccc(C(F)(F)F)cc3-c3cc(C(F)(F)F)ncn3)=C(O)C3(CCCC3)N2C)c(F)c1F [Example 373]
2,16.4,CN1N(Cc2ccc(OCCN3CCC(N4CCOCC4)CC3)c(F)c2F)C(=O)C(C(=O)Nc2ccc(C(F)(F)F)cc2-c2cc(C(F)(F)F)ncn2)=C(O)C12CCCC2 [Example 374]
3,17.8,COC[C@@H]1CCCN1CCOc1ccc(CN2C(=O)C(C(=O)Nc3ccc(C(F)(F)F)cc3-c3cc(C(F)(F)F)ncn3)=C(O)C3(CCCC3)N2C)c(F)c1F [Example 375]
4,21.4,CN1N(Cc2ccc(OCCN3CCN(CCO)CC3)c(F)c2F)C(=O)C(C(=O)Nc2ccc(C(F)(F)F)cc2-c2cc(C(F)(F)F)ncn2)=C(O)C12CCCC2 [Example 376]
5,8.7,COCCN1CCN(CCOc2ccc(CN3C(=O)C(C(=O)Nc4ccc(C(F)(F)F)cc4-c4cc(C(F)(F)F)ncn4)=C(O)C4(CCCC4)N3C)c(F)c2F)CC1 [Example 377]
6,18,CN1N(Cc2ccc(OCCN3CCN(CCOCCO)CC3)c(F)c2F)C(=O)C(C(=O)Nc2ccc(C(F)(F)F)cc2-c2cc(C(F)(F)F)ncn2)=C(O)C12CCCC2 [Example 378]
7,27.3,CN1N(Cc2ccc(OCCN3CCN(S(C)(=O)=O)CC3)c(F)c2F)C(=O)C(C(=O)Nc2ccc(C(F)(F)F)cc2-c2cc(C(F)(F)F)ncn2)=C(O)C12CCCC2 [Example 379]
8,20.2,CN1N(Cc2ccc(OCCN3[C@@H]4COC[C@H]3C4)c(F)c2F)C(=O)C(C(=O)Nc2ccc(C(F)(F)F)cc2-c2cc(C(F)(F)F)ncn2)=C(O)C12CCCC2 [Example 380]
9,22,"CN1N(Cc2ccc(OCCN[C@@H](CC(=O)O)C(=O)O)c(F)c2F)C(=O)C(C(=O)Nc2ccc(C(F)(F)F)cc2-c2cc(C(F)(F)F)ncn2)=C(O)C12CCCC2 [Example 381, (2S)-2-[2-[2,3-Difluoro-4-[[10-hydroxy-6-methyl-8-oxo-9-[[4-(trifluoromethyl)-2-[6-(trifluoromethyl)pyrimidin-4-yl]phenyl]carbamoyl]-6,7-diazaspiro[4.5]dec-9-en-7-yl]methyl]phenoxy]ethylamino]butanedioate]"
10,21,"CN1N(Cc2ccc(OCCNC(CC(=O)O)CC(=O)O)c(F)c2F)C(=O)C(C(=O)Nc2ccc(C(F)(F)F)cc2-c2cc(C(F)(F)F)ncn2)=C(O)C12CCCC2 [Example 382, 3-[2-[2,3-Difluoro-4-[[10-hydroxy-6-methyl-8-oxo-9-[[4-(trifluoromethyl)-2-[6-(trifluoromethyl)pyrimidin-4-yl]phenyl]carbamoyl]-6,7-diazaspiro[4.5]dec-9-en-7-yl]methyl]phenoxy]ethylamino]pentanedioate]"
11,20.9,"CN1N(Cc2ccc(OCCCOC[C@H](O)CO)c(F)c2F)C(=O)C(C(=O)Nc2ccc(C(F)(F)F)cc2-c2ccc(C(F)(F)F)nc2)=C(O)C12CCC2 [Example 383, 6-[[4-[3-[(2R)-2,3-Dihydroxypropoxy]propoxy]-2,3-difluorophenyl]methyl]-9-hydroxy-5-methyl-7-oxo-N-[4-(trifluoromethyl)-2-[6-(trifluoromethyl)pyridin-3-yl]phenyl]5,6-diazaspiro[3.5]non-8-ene-8-carboxamide]"
12,11,CN1N(Cc2ccc(OCCCCOC[C@H](O)CO)c(F)c2F)C(=O)C(C(=O)Nc2ccc(C(F)(F)F)cc2-c2ccc(C(F)(F)F)nc2)=C(O)C12CCC2 [Example 384]
13,6.2,CN1N(Cc2ccc(OCCCCCOC[C@H](O)CO)c(F)c2F)C(=O)C(C(=O)Nc2ccc(C(F)(F)F)cc2-c2ccc(C(F)(F)F)nc2)=C(O)C12CCC2 [Example 385]
14,18.9,CN1N(Cc2ccc(OCCCOC[C@H](O)CO)c(F)c2F)C(=O)C(C(=O)Nc2ccc(C(F)(F)F)cc2-c2ccc(C(F)(F)F)nc2)=C(O)C12CCCC2 [Example 386]
15,10.7,CN1N(Cc2ccc(OCCCCOC[C@H](O)CO)c(F)c2F)C(=O)C(C(=O)Nc2ccc(C(F)(F)F)cc2-c2ccc(C(F)(F)F)nc2)=C(O)C12CCCC2 [Example 387]
16,6.9,CN1N(Cc2ccc(OCCCCCOC[C@H](O)CO)c(F)c2F)C(=O)C(C(=O)Nc2ccc(C(F)(F)F)cc2-c2ccc(C(F)(F)F)nc2)=C(O)C12CCCC2 [Example 388]
17,24.6,CN1N(Cc2ccc(OCCCOC[C@H](O)CO)c(F)c2F)C(=O)C(C(=O)Nc2ccc(C(F)(F)F)cc2-c2cc(C(F)(F)F)ncn2)=C(O)C12CCC2 [Example 389]
18,7.8,CN1N(Cc2ccc(OCCCCOC[C@H](O)CO)c(F)c2F)C(=O)C(C(=O)Nc2ccc(C(F)(F)F)cc2-c2cc(C(F)(F)F)ncn2)=C(O)C12CCC2 [Example 390]
19,7,CN1N(Cc2ccc(OCCCCCOC[C@H](O)CO)c(F)c2F)C(=O)C(C(=O)Nc2ccc(C(F)(F)F)cc2-c2cc(C(F)(F)F)ncn2)=C(O)C12CCC2 [Example 391]

# More lines, now with the values behind:
row,Structure (SMILES),IC50 [µM]
1,CN1N(Cc2ccc(OCCn3cncn3)c(F)c2F)C(=O)C(C(=O)Nc2ccc(C(F)(F)F)cc2-c2cc(C(F)(F)F)ncn2)=C(O)C12CCC2 [Example 352],16.7
2,CC(=O)NCCN(C)CCOc1ccc(CN2C(=O)C(C(=O)Nc3ccc(C(F)(F)F)cc3-c3cc(C(F)(F)F)ncn3)=C(O)C3(CCC3)N2C)c(F)c1F [Example 353],23.9
3,CC(=O)N(C)CCN(C)CCOc1ccc(CN2C(=O)C(C(=O)Nc3ccc(C(F)(F)F)cc3-c3cc(C(F)(F)F)ncn3)=C(O)C3(CCC3)N2C)c(F)c1F [Example 354],26
4,COC(=O)[C@@H]1CCCN1CCOc1ccc(CN2C(=O)C(C(=O)Nc3ccc(C(F)(F)F)cc3-c3cc(C(F)(F)F)ncn3)=C(O)C3(CCC3)N2C)c(F)c1F [Example 355],15
5,COC1(C)CN(CCOc2ccc(CN3C(=O)C(C(=O)Nc4ccc(C(F)(F)F)cc4-c4cc(C(F)(F)F)ncn4)=C(O)C4(CCC4)N3C)c(F)c2F)C1 [Example 356],21.9
6,CSC1CN(CCOc2ccc(CN3C(=O)C(C(=O)Nc4ccc(C(F)(F)F)cc4-c4cc(C(F)(F)F)ncn4)=C(O)C4(CCC4)N3C)c(F)c2F)C1 [Example 357],21.8
7,CN1N(Cc2ccc(OCCN3CCC(N4CCOCC4)CC3)c(F)c2F)C(=O)C(C(=O)Nc2ccc(C(F)(F)F)cc2-c2cc(C(F)(F)F)ncn2)=C(O)C12CCC2 [Example 358],9.2
8,CN1CCN(CCOc2ccc(CN3C(=O)C(C(=O)Nc4ccc(C(F)(F)F)cc4-c4cc(C(F)(F)F)ncn4)=C(O)C4(CCC4)N3C)c(F)c2F)CC1=O [Example 359],18.4
9,CN1N(Cc2ccc(OCCN3CCN(CCO)CC3)c(F)c2F)C(=O)C(C(=O)Nc2ccc(C(F)(F)F)cc2-c2cc(C(F)(F)F)ncn2)=C(O)C12CCC2 [Example 360],23.1
10,CN1N(Cc2ccc(OCCN3CCN(CCOCCO)CC3)c(F)c2F)C(=O)C(C(=O)Nc2ccc(C(F)(F)F)cc2-c2cc(C(F)(F)F)ncn2)=C(O)C12CCC2 [Example 361],20.2
11,CN1N(Cc2ccc(OCCN3CCN(CCCO)CC3)c(F)c2F)C(=O)C(C(=O)Nc2ccc(C(F)(F)F)cc2-c2cc(C(F)(F)F)ncn2)=C(O)C12CCC2 [Example 362],18.8
12,CN1N(Cc2ccc(OCCN3CCN(S(C)(=O)=O)CC3)c(F)c2F)C(=O)C(C(=O)Nc2ccc(C(F)(F)F)cc2-c2cc(C(F)(F)F)ncn2)=C(O)C12CCC2 [Example 363],28
13,CN(C)C(=O)N1CCN(CCOc2ccc(CN3C(=O)C(C(=O)Nc4ccc(C(F)(F)F)cc4-c4cc(C(F)(F)F)ncn4)=C(O)C4(CCC4)N3C)c(F)c2F)CC1 [Example 364],20.9
14,CN(CCOc1ccc(CN2C(=O)C(C(=O)Nc3ccc(C(F)(F)F)cc3-c3cc(C(F)(F)F)ncn3)=C(O)C3(CCCC3)N2C)c(F)c1F)C1CCOCC1 [Example 365],12.2
15,CN(CCOc1ccc(CN2C(=O)C(C(=O)Nc3ccc(C(F)(F)F)cc3-c3cc(C(F)(F)F)ncn3)=C(O)C3(CCCC3)N2C)c(F)c1F)C1CCOC1 (stereo not shown) [Example 366],16.3
16,CN1N(Cc2ccc(OCCN3C4CCC3COC4)c(F)c2F)C(=O)C(C(=O)Nc2ccc(C(F)(F)F)cc2-c2cc(C(F)(F)F)ncn2)=C(O)C12CCCC2 [Example 367],14
17,COC(=O)CN(C)CCOc1ccc(CN2C(=O)C(C(=O)Nc3ccc(C(F)(F)F)cc3-c3cc(C(F)(F)F)ncn3)=C(O)C3(CCCC3)N2C)c(F)c1F [Example 368],14.7
18,CN1N(Cc2ccc(OCCN3CC(F)(F)C3)c(F)c2F)C(=O)C(C(=O)Nc2ccc(C(F)(F)F)cc2-c2cc(C(F)(F)F)ncn2)=C(O)C12CCCC2 [Example 369],21.8
19,C[C@@H]1COC[C@H](C)N1CCOc1ccc(CN2C(=O)C(C(=O)Nc3ccc(C(F)(F)F)cc3-c3cc(C(F)(F)F)ncn3)=C(O)C3(CCCC3)N2C)c(F)c1F [Example 370],18.2
20,CN1N(Cc2ccc(OCCN3CCOCC3(C)C)c(F)c2F)C(=O)C(C(=O)Nc2ccc(C(F)(F)F)cc2-c2cc(C(F)(F)F)ncn2)=C(O)C12CCCC2 [Example 371],8.5
21,COCC(C)(C)N(C)CCOc1ccc(CN2C(=O)C(C(=O)Nc3ccc(C(F)(F)F)cc3-c3cc(C(F)(F)F)ncn3)=C(O)C3(CCCC3)N2C)c(F)c1F [Example 372],16.3
